Test results published in publication PMC8748916, “Microbial enzymes induce colitis by reactivating triclosan in the mouse gastrointestinal tract” (Nature Communications, 2022).
“And” between values parts separate entries of the source, which are not always exact repeats. Equal values may be shown once.

Assays:
[1] = cited from earlier work
mouse fecal bacteria = assay: Conversion of TCS-G to TCS by anaerobically cultured mouse fecal bacteria in vitro; format: in vitro ADME; conditions: from TCS-G, replicates
MC38 cells = assay: Inflammatory response of MC38 intestinal epithelial cells (Il-6 RT-qPCR, IL-6 ELISA); format: cell-based, mouse; conditions: for Il-6 (Fig. S16b) / IL-6 (Fig. S16c): MC38 cells, replicates; for Il-6 (Fig. S16b): gene expression; for IL-6 (Fig. S16c): protein
Method: MC38 intestinal epithelial cells were cultured in Dulbecco’s Modified Eagle Medium (DMEM) supplemented with 10% fetal bovine serum (FBS) and incubated at 37 °C under an atmosphere of 5% CO2. MC38 cells were seeded at 20% confluency and left to settle overnight. Cells were then treated with either 1 μM TCS, TCS-G, or vehicle (DMSO). After 48 h, cells were harvested for RT-qPCR analysis. Cell medium was collected for ELISA analysis using the CBA Mouse Inflammation Kit (BD Sciences) according to the manufacturer’s instructions, and data were acquired using a BD LSR Fortessa flow cytometer (BD Biosciences) and analyzed using FlowJo software (Treestar).
Total RNA of colon tissues and MC38 cells were isolated using Trizol reagent (Ambion) according to the manufacturer’s instruction. RNA was reverse transcribed into cDNA using the High Capacity cDNA Reverse Transcription kit (Applied Biosystem) according to the manufacturer’s instructions. In all, 20 μL PCR reactions were prepared using the Maxima SYBR Green Master Mix (Thermo Fisher Scientific), and qPCR was carried out using a DNA Engine Opticon System (Bio-Rad Laboratories). Mouse-specific primer sequences (Thermo Fisher Scientific) used to detect inflammatory biomarkers are listed in Supplementary Table S6. Gapdh expression was used as an internal control.
a. Cultured murine intestinal epithelial MC38 cells were treated with 1 μM of TCS or TCS-G for 48 h prior to
studying inflammatory responses. b. TCS increases the expression of Il-6, which encodes the pro-inflammatory
n = 3 per group from three independent experiments, * P < 0.05, ** P < 0.01, *** P < 0.001.

Rh3 GUS mutants = assay: Catalytic efficiency assay, wild-type and mutant Rh3 GUS; format: biochemical, R. hominis; conditions: Fig. 3j, replicates 1-3
[2] = system: Fp2-L1 GUS mutant proteins; assay: Catalytic efficiency assay, wild-type and mutant Fp2-L1 GUS; format: biochemical, F. prausnitzii; conditions: Fig. 3h, replicates 1-3
Loop 1 GUS enzymes = assay: In vitro IC50 assay, purified Loop 1 GUS enzymes (group statement); format: biochemical, gut microbial; conditions: Fp2-L1 GUS and several other Loop 1 GUS enzymes; conversion of TCS-G to TCS
Method: (§1) Reaction mixtures containing 10 µL GUS (10 nM final), 10 µL TCS-G (200 µM final), 5 µL inhibitor (various concentrations), and 25 µL buffer (50 mM HEPES, 50 mM NaCl, various pH) or (50 mM sodium acetate, 50 mM NaCl, various pH) were incubated for 10 min and quenched with 50 µL 25% trichloroacetic acid. Samples were centrifuged 10 min at 16,000 × g, and the supernatant was analyzed using the method described for the catalytic efficiency assay. Inhibition was calculated by the equation below:1 %inhibition=100×(1−(AUCinh−AUCmax)/(AUCmin−AUCmax)) where AUCmin is the signal of the uninhibited reaction, AUCmax is the signal of the 100% inhibited reaction, and AUCinh is the signal of the reaction at a given concentration of inhibitor. Percent inhibition values were plotted against the log of inhibitor concentration, and GraphPad Prism 8.0 was used to determine IC50 values.

[3] = system: epithelial cells in the ileum, proximal or distal colon; parameters: method as in PMID 32170007; conditions: proximal or distal colon of the treated mice; cited from earlier work
F. prausnitzii GUS = F. prausnitzii GUS (Faecalibacterium prausnitzii, UniProt C7H4D2); assay: In vitro IC50 assay (TCS-G to TCS conversion, HPLC); format: biochemical
F. prausnitzii GUS, sequence (C7H4D2 entry or part of it): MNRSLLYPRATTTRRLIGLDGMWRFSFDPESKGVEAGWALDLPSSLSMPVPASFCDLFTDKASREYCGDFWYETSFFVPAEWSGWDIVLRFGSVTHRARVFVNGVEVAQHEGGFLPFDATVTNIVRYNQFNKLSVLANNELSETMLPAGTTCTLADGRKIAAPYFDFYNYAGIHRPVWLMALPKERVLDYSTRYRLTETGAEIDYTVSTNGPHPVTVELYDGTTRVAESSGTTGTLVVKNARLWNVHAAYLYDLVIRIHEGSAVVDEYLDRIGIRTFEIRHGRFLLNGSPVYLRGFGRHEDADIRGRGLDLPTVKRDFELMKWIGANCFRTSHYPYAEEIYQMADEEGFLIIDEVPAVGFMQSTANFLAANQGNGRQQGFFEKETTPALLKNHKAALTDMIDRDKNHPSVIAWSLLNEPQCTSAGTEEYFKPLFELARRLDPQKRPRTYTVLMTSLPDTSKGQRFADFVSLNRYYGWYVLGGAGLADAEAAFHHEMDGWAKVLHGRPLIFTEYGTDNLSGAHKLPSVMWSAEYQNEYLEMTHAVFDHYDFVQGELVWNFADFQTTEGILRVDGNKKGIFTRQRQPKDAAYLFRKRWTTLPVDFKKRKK
Method: as §1

[4] = system: F. prausnitzii 2-L1 (Fp2-L1) GUS; assay: as above; format: biochemical; conditions: for F. prausnitzii 2-L1 GUS %inhibition: Fig. 4b, triplicate
C57BL/6 mice = assay: Effects of GUSi on gut inflammation in mice not stimulated with DSS; format: in vivo; parameters: TNF (Fig.S12e) / IL-6 (Fig.S12e) / IL-10 (Fig.S12e) / MCP-1 (Fig.S12e): unit not given here
[5] = GUSi 3.7037 uM, Fig. 4b, triplicate
[6] = GUSi 11.1111 uM, Fig. 4b, triplicate
[7] = GUSi 33.3333 uM, Fig. 4b, triplicate
[8] = GUSi 100 uM, Fig. 4b, triplicate
[9] = conversion of TCS-G (200 µM) to TCS, Loop 1 GUS
[10] = 1 mg/kg GUSi via oral gavage, 3- to 4-week treatment
[11] = cytokine level, individual mice, no DSS
[12] = gene expression, individual mice, no DSS

Oc1cc(Cl)ccc1Oc1ccc(Cl)cc1Cl [TCS, Triclosan]
No-Observed-Adverse-Effect Level (NOAEL) ([1]; ref 36 (reply to reviewers)): 25 to 40 mg/kg/day | calculated Acceptable Daily Intake (ADI) ([1]; ref 37 (reply to reviewers)): 0.25 to 0.4 mg/kg/day | TCS formed (mouse fecal bacteria): 17.00 pmol and 16.49 pmol and 18.41 pmol | Il-6 gene expression (MC38 cells; 1 µM, 48 h): increased | medium concentration of IL-6 (ELISA) (MC38 cells; 1 µM, 48 h): increased | Il-6 (Fig. S16b) (MC38 cells): 2.497 and 4.058 and 2.001 and 8.229 and 6.742 and 2.645 and 3.872 and 1.125 and 4.892 | IL-6 (Fig. S16c) (MC38 cells): 31 pg/mL and 44.92 pg/mL and 38.72 pg/mL and 36.69 pg/mL and 44.27 pg/mL and 53.91 pg/mL and 47.57 pg/mL and 30.74 pg/mL and 39.61 pg/mL

O=C(O)C1OC(Oc2cc(Cl)ccc2Oc2ccc(Cl)cc2Cl)C(O)C(O)C1O (centres unmarked) [TCS-G, triclosan-glucuronide]
Catalytic efficiency (Rh3 GUS mutants; Enzyme: Rh3 F406A): 147440 M⁻¹ s⁻¹ and 148640 M⁻¹ s⁻¹ and 151680 M⁻¹ s⁻¹ | Catalytic efficiency (Rh3 GUS mutants; Enzyme: Rh3 L635STOP): 0 M⁻¹ s⁻¹ | Catalytic efficiency (Rh3 GUS mutants; Enzyme: Rh3 Y430A): 0 M⁻¹ s⁻¹ | Catalytic efficiency ([2]; Enzyme: Fp 2-L1 M362A): 344000 M⁻¹ s⁻¹ and 207500 M⁻¹ s⁻¹ and 364600 M⁻¹ s⁻¹ | Catalytic efficiency ([2]; Enzyme: Fp 2-L1 M454A): 1202500 M⁻¹ s⁻¹ and 1255200 M⁻¹ s⁻¹ and 1243800 M⁻¹ s⁻¹ | Catalytic efficiency ([2]; Enzyme: Fp 2-L1 M455A): 1203800 M⁻¹ s⁻¹ and 1137600 M⁻¹ s⁻¹ and 1168500 M⁻¹ s⁻¹ | Catalytic efficiency ([2]; Enzyme: Fp 2-L1 Y479A): 0 M⁻¹ s⁻¹ | Il-6 gene expression (MC38 cells; 1 µM, 48 h): does not | Il-6 (Fig. S16b) (MC38 cells): 1.072 and 0.7026 and 0.674 and 0.599 and 2.104 and 1.745 and 1.341 and 2.8489 and 1.88 | IL-6 (Fig. S16c) (MC38 cells): 30.76 pg/mL and 26.1 pg/mL and 35.84 pg/mL and 30.49 pg/mL and 20.04 pg/mL and 13.78 pg/mL and 35.28 pg/mL and 36.12 pg/mL and 25.88 pg/mL

C1CCc2c(c(N3CCOCC3)nc3sc4c(N5CCNCC5)nnnc4c23)C1 [GUSi, UNC10201652]
IC50 (Loop 1 GUS enzymes): 640 to 4900 nM | effect on the proliferation of epithelial cells [3]: no effect | F. prausnitzii GUS % inhibition (F. prausnitzii GUS; GUSi 0.411523 uM, Fig. 4b, triplicate): -3.256% and -6.409% and 1.703% | F. prausnitzii GUS % inhibition (F. prausnitzii GUS; [5]): 31.508% and 41.6292% | inhibition at 3.7037 µM (F. prausnitzii GUS; [5]): 30.3% | F. prausnitzii GUS % inhibition (F. prausnitzii GUS; [6]): 65.4843% and 60.2667% | inhibition at 11.1111 µM (F. prausnitzii GUS; [6]): 68.7% | F. prausnitzii GUS % inhibition (F. prausnitzii GUS; [7]): 79.5271% and 77.5064% | inhibition at 33.3333 µM (F. prausnitzii GUS; [7]): 74.1% | F. prausnitzii GUS % inhibition (F. prausnitzii GUS; [8]): 90.4792% and 87.3233% | inhibition at 100 µM (F. prausnitzii GUS; [8]): 85.7% | IC50 (F. prausnitzii GUS; [9]): 4.9 ± 0.8 µM | F. prausnitzii 2-L1 GUS %inhibition ([4]; GUSi 0.0457247 uM): 0% and 0.2667% | F. prausnitzii 2-L1 GUS %inhibition ([4]; GUSi 0.137174 uM): 0% and 0.1263% | F. prausnitzii 2-L1 GUS %inhibition ([4]; GUSi 0.411523 uM): 0% | F. prausnitzii 2-L1 GUS %inhibition ([4]; GUSi 3.7037 uM): 74.6624% and 62.5632% and 66.5428% | F. prausnitzii 2-L1 GUS %inhibition ([4]; GUSi 11.1111 uM): 93.6484% and 88.7563% and 88.6045% | F. prausnitzii 2-L1 GUS %inhibition ([4]; GUSi 33.3333 uM): 99.4351% and 98.0067% and 94.7151% | F. prausnitzii 2-L1 GUS %inhibition ([4]; GUSi 100 uM): 100.964% and 99.7754% and 96.4492% | IC50 [4, 9]: 2800 ± 100 nM | effect on body weight (C57BL/6 mice; [10]): little effects | effect on colon histology (C57BL/6 mice; [10]): little effects | effect on colon length (C57BL/6 mice; [10]): little effects | effect on colonic or systematic inflammation (C57BL/6 mice; [10]): little effects | IFN (Fig.S12e) (C57BL/6 mice; [11]): 0 | IL-6 (Fig.S12e) (C57BL/6 mice; [11]): 13.43 and 0 and 6.45 | IL-10 (Fig.S12e) (C57BL/6 mice; [11]): 37.4 and 0 and 198.61 and 44.6 and 23.86 | IL-12P70 (Fig.S12e) (C57BL/6 mice; [11]): 25.71 and 0 and 88.12 | MCP-1 (Fig.S12e) (C57BL/6 mice; [11]): 48.03 and 146.49 and 57.21 and 61.62 and 184.9 and 179.76 and 331.3 and 143.93 | TNF (Fig.S12e) (C57BL/6 mice; [11]): 60.3 and 20.04 and 10.87 and 8.58 and 0 and 48.52 and 31.51 and 26.47 | ifn (Fig.S12d) (C57BL/6 mice; [12]): 0.5314 and 0.5552 and 0.6727 and 2.025 and 1.546 and 2.975 and 0.7505 and 0.9593 | il6 (Fig.S12d) (C57BL/6 mice; [12]): 0.9822 and 0.6373 and 0.485 and 1.527 and 0.9215 and 0.6364 and 1.1212 and 1.239 | il17 (Fig.S12d) (C57BL/6 mice; [12]): 1.45 and 0.9375 and 0.5532 and 1.296 and 0.6529 and 0.514 and 0.9732 and 1.7301 | il-1b (Fig.S12d) (C57BL/6 mice; [12]): 1.675 and 3.673 and 1.563 and 0.709 and 1.249 and 2.221 and 3.587 and 1.198 | il-10 (Fig.S12d) (C57BL/6 mice; [12]): 1.7121 and 1.046 and 0.8638 and 1.378 and 1.892 and 1.921 and 0.8229 and 0.4425 | il-23 (Fig.S12d) (C57BL/6 mice; [12]): 1.384 and 0.7725 and 0.7614 and 1.398 and 2.3746 and 0.7478 and 0.414 and 0.4606 | mcp1 (Fig.S12d) (C57BL/6 mice; [12]): 1.246 and 0.6949 and 0.7972 and 1.205 and 1.387 and 0.8717 and 0.5743 and 0.5267 | tlr-4 (Fig.S12d) (C57BL/6 mice; [12]): 1.193 and 1.155 and 1.078 and 1.23 and 1.258 and 1.02 and 0.5994 and 0.6478 | tnf (Fig.S12d) (C57BL/6 mice; [12]): 0.9505 and 1.516 and 0.4248 and 0.7567 and 1.942 and 2.3131 and 2.563 and 2.05
